Data set [1] in a line: Fluorescence quenching by triethylamine (Stern-Volmer). Type of data set: physicochemical. The settings on record: Et3N as a quencher; determined from Ksv and singlet lifetime. Here is the method: The fluorescence quenching by triethylamine (Et3N) was tested in order to gauge relative efficiencies of these compounds as DNA photo-oxidizers. […] The measured singlet lifetimes allowed us to determine the quenching rate constant, kq, which in this system, should be very close in magnitude to the rate of electron transfer, kET. The 2-3-fold increase in the rate of electron transfer from Et3N to excited singlet state of the meta- and ortho-isomers in comparison to the para-isomer is consistent with the well-known photochemical ortho, meta effect of an acceptor substituent. See Zimmerman, H. E., The Meta Effect in Organic Photochemistry: Mechanistic and Exploratory Organic Photochemistry, J. Am. Chem. Soc., 1995, 117, 8988-8991. doi: 10.1021/ja00140a014 and Zimmerman, H. E.; Alabugin, I. V. J. Am. Chem. Soc. 2001, […]. doi: 10.1021/ja002402c.

In a further data set the test system is DNA. The settings on record: literature value; cited from earlier work.
The conditions of data set [2]: from Carey, Organic Chemistry, 6th ed.; cited from earlier work.
A further data set deals with pBR322 plasmid DNA. The data set can be described thus: Plasmid relaxation assay for DNA photocleavage. In kind it is biochemical. The settings on record: 30 μM/base pair pBR322, pH 6, 7 and 8; for DNA cleavage efficiency: 15 μM lysine conjugate. The method, then: The present invention is additionally directed to methods of forming a double strand cleavage in DNA, wherein compounds having the above Structures are contacted with and bind to double stranded DNA. The pH-dependency of DNA-cleavage of the two bis-lysine conjugates was investigated. The top of FIGS. 6A and 6B depicts the results of the plasmid relaxation assay for DNA photocleavage with 15 μM of acetylenic conjugates (3) (FIG. 6A) and (5) (FIG. 6B) and […] (b.p.) of pBR322 plasmid DNA at pH range of 6-9 after 10 min. of UV (>310 nm) irradiation. The bottom of each of FIGS. 6A and 6B are graphs of quantified cleavage data as a function of pH for conjugates (3) (FIG. 6A) and (5) (FIG. 6B). The reported values represent the average of three experiments. Code: Form I, diamond; Form II, square; Form III, triangle.
The plasmid relaxation assay experiments were carried out on 15 μM of lysine conjugate with 30 μM/base pair of pBR322 plasmid DNA at pH 6, 7 and 8.
Plasmid DNA Photocleavage. pBR322 plasmid DNA (4,361 bp; from BioLabs Inc., 1 μg/μL solution in 10 mM Tris-HCl (pH 8.0), and 1mM EDTA buffer) was diluted to a concentration of 0.01 μg/μL. The solution containing cleavage agent, DNA (30 μM/bp) in 20 mM sodium phosphate buffer was incubated for 1 hour at 30° C. Samples were placed on ice at a distance of 20 cm from 200 W Hg—Xe lamp (Spectra-Physics, Laser & Photonics Oriel Instruments with long pass filter with 300 nm cut-on wavelength).
Electrophoretic Analysis. The gel electrophoresis was carried out in lx TBE buffer at 80 V using Miligel FisherBiotech Horizontal Electrophoresis System. All gels were run on 1% agarose slab gels. Before loading, the DNA samples were mixed with 0.33 volume of tracking dye containing bromophenol blue (0.25%) and glycerol (30%) in water. After staining in ethidium bromide solution (2 μg/mL) for 1 hour, the gel was washed with water and pictures were taken. The relative quantities of the supercoiled, nicked, and linear DNA were calculated by integrating the “area” of each spot by the image analyzer software Total/Lab (Nonlinear Dynamics Ltd., UK). […]

Data set [3] has as its system A375 cells (Human Melanoma). The data set can be described thus: Cell proliferation (MTT) assay. Type of data set: cell-based. The settings on record: A375, after 10 min UV irradiation at 360 nm. Here is the method: The ability of compounds (15), (16), and (17) to inhibit cell proliferation in human melanoma cell lines was tested in the dark and under photoactivation. See FIGS. 9A and 9B, which depict cell proliferation assays in A375 cells (Human Melanoma) exposed to bis-lysine conjugates (15) (square), (16) (up-pointing triangle) and (17) (down-pointing triangle) in dark (FIG. 9A) and after 10 min. of UV (360 nm) irradiation (FIG. 9B).
MTT Assay. A375 cells were seeded at 2000 cells per well in a 96-well plate. Seven 2-fold serial dilutions of the compounds were added to the cells in triplicate. Concentrations were from 1 to 0.016 μM of compounds. After 4 hs of incubation with the compounds, cells were UV-irradiated for ten minutes at 365 nm (UV transluminator, Spectronomics Corp. model TR-365R). After 72hs of incubation, MTT (Sigma® cat#M2128) was added to cells to a final concentration of 1.25 mg/mL and incubated for 60 minutes. Cells were centrifuged at 900 g for 5 minutes at room temperature. Media was replaced with DMSO and absorbance will be measured in a plate reader at 570 nm.

Counter-ions that a name gives are not always drawn. Marks after values point to notes of the source that are not given here.

`CC(=O)Nc1ccccc1C#Cc1c(F)c(F)nc(F)c1F` [(5) (ortho), N-(2-((Perfluoropyridin-4-yl)ethynyl)phenyl) acetamide] gave a kq (quenching rate constant) in data set [1] of 1.43e+10 M⁻¹ s⁻¹.
With calicheamicin, the “double strand breaks formed” value in the data set on DNA is recorded as 25-33%.
In the case of `CC(=O)Nc1cccc(C#Cc2c(F)c(F)nc(F)c2F)c1` [(4) (meta), N-(3-((Perfluoropyridin-4-yl)ethynyl)phenyl)acetamide], the kq (quenching rate constant) in data set [1] worked out at 1.36e+10 M⁻¹ s⁻¹.
Same read-out and setting: the value for `CC(=O)Nc1ccc(C#Cc2c(F)c(F)nc(F)c2F)cc1` [(3) (para), N-(4-((Perfluoropyridin-4-yl)ethynyl)phenyl)acetamide] was 5.64e+09 M⁻¹ s⁻¹.
For the molecule `NCCCC[C@H](N)C(=O)O` [Lysine], in data set [2], the pKa1 is listed as 8.95^b and the pKa2 is 10.53^b.
Turning to `NCCCC[C@H](N)C(=O)Nc1cccc(C#Cc2c(F)c(F)nc(F)c2F)c1` [(16), (S)-2,6-Diamino-N-(3-((perfluoropyridin-4-yl)ethynyl)phenyl)hexanamide Dihydrochloride], the DNA cleavage efficiency entry in the data set on pBR322 plasmid DNA is “less DNA cleavage than conjugate (15)”.
For the molecule `NCCCC[C@H](N)C(=O)Nc1ccccc1C#Cc1c(F)c(F)nc(F)c1F` [(17), (S)-2,6-Diamino-N-(2-((perfluoropyridin-4-yl)ethynyl)phenyl)hexanamide Dihydrochloride], in data set [3], the phototoxicity entry is given as “some phototoxicity”. For the same molecule, the DNA cleavage efficiency entry with pBR322 plasmid DNA was “least efficient DNA cleavage”. In addition, the double-strand breaks entry in the data set on pBR322 plasmid DNA (15 μM) is “has not produced any double-strand breaks”.

The record behind these values is patent US8927728B2, “Dipeptide acetylene conjugates and a method for photocleavage of double strand DNA by dipeptide acetylene conjugates” (The Florida State University Research Foundation, Inc., priority 2011, dated 2015).
